One data set has as its target Dopamine D3 (Homo sapiens (Human), UniProt P35462). The experiment in a line: Dopamine D3 binding. From the text:
(§1) Further, the compounds of the invention may be tested in binding assays and functional activity assays by well known methods for other physiologically important receptors such as, but not limited to, the hERG channel, other serotonin receptors (specifically 5-HT1B, 5-HT1D, receptors, lack of agonist activity at 5-HT2B receptors, 5-HT2C, 5-HT5, 5-HT6, and 5-HT7 receptors), dopaminergic receptors (specifically D1, D2, and D3), GABAA receptors, adrenergic receptors and monoamine transporters.

Data set [1] deals with recombinant 5-HT2A receptor (human) (Homo sapiens (Human), UniProt P28223). The data set is described as follows: 5-HT2A competition binding assay ([3H]-Ketanserin, SPA).
Procedure: [^3H]-Ketanserin binding experiments are carried out in SPA 96-well format. Membranes used in this assay are prepared from AV-12 cells stably expressing recombinant 5-HT2A receptor (human). The incubation is initiated by the addition of a mixture of WGA YSi SPA beads (1 mg/well, Perkin Elmer (MA, USA), RPNQ0011) and 2 μg membranes to assay buffer (67 mM Tris, 0.5 mM EDTA; pH 7.6) containing 3.1 nM [^3H]-Ketanserin and varying concentrations of the test compound (10 point concentration response curves). Non-specific binding is determined in the presence of 20 μM 1-(1-Naphthyl) piperazine. Samples are incubated for 4 hr. at room temperature (22° C.) and then read in a Microbeta Trilux.
Data set [2] has as its target human recombinant H1 receptor (Homo sapiens (Human), UniProt P35367). The data set is described as follows: H1 competition binding assay ([3H]-Pyrilamine, SPA). The procedure:
[^3H]-Pyrilamine binding experiments are carried out in SPA (scintillation proximity assay) 96-well format. Membranes used in this assay are prepared from HEK-293 cells stably expressing recombinant H1 receptor (human). The incubation is initiated by the addition of a mixture of WGA PVT SPA beads (1 mg/well, Perkin Elmer (MA, USA) RPNQ0001) and 3 μg membranes to assay buffer (67 mM Tris; pH 7.6) containing 3.5 nM [^3H]-Pyrilamine and varying concentrations of the test compound (10 point concentration response curves). Non-specific binding is determined in the presence of 10 μM Triprolidine. Samples are incubated for 4 hr. at room temperature (22° C.) and then read in a Microbeta Trilux.
Curves are evaluated using a 4-parameter logistic nonlinear equation to obtain the concentration of competitor causing 50% inhibition of radioligand binding (IC50). Equilibrium dissociation constants (Ki) are calculated according to the equation Ki=IC50/(1+L/Kd), where L equals the concentration of radioligand used in the experiment and Kd equals the equilibrium dissociation constant of the radioligand for the receptor, determined from standard saturation analysis or homologous competition experiments. Reported values for Ki, where n values are indicated, are shown as geometric mean±the standard error of the mean (SEM), with the number of replicate determinations indicated by n. […]

The target in another data set is Dopamine D2 (Homo sapiens (Human), UniProt P14416). The experiment in a line: Dopamine D2 binding.
Sequence of Dopamine D2 (P14416 whole entry): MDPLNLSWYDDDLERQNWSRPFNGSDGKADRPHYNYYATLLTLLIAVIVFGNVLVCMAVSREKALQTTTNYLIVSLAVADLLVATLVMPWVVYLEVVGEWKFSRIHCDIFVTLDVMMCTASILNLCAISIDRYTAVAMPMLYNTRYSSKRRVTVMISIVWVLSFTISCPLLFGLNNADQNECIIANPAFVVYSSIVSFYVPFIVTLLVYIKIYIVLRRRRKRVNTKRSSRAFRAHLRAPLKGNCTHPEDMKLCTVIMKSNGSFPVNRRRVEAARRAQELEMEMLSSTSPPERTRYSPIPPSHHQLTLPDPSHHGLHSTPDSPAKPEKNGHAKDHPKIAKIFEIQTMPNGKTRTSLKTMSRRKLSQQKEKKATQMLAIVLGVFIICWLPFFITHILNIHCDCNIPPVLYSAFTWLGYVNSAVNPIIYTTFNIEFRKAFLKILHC
Source text: as §1

The nature of data set [3]: Plasma clearance in rat (intravenous). It counts as in vivo. The following applies: male, Sprague Dawley, rat, plasma, iv, 1 mg/kg, read-out: Clearance. The method, then:
Male Sprague Dawley rats (body weight range 250-320 g) with indwelling femoral arterial cannulae are obtained from Charles River, Wilmington, Mass. 01887, USA. Test compound is administered intravenously in solution (1 mL/kg) in 20% Captisol® in 22.5 mM phosphate buffer, pH 2, at a final drug concentration of 1.0 mg/mL (free base equivalents). Blood samples are obtained using the indwelling cannula over 24 hr. Samples of plasma are obtained by centrifugation and stored frozen (−20° C.), or on dry ice, prior to analysis.
Frozen plasma samples are thawed to room temperature for bioanalysis of concentrations of test compound. A related internal standard compound in acetonitrile/methanol (1:1, v/v) is added to all samples of plasma (1:1, v/v). The samples are centrifuged to remove precipitated protein prior to analysis. The supernatants are analysed by injection and rapid gradient elution on a Javelin Betasil C18 column (20×2.1 mm cartridge, Mobile phase A: Water/1 M NH4HCO3, 2000:10 v/v, Mobile Phase B: MeOH/1 M NH4HCO3, 2000:10 v/v). The eluted analytes are detected by LC-MS-MS analysis using a Sciex API 4000 triple quadrupole mass spectrometer. Concentrations of compound are determined from standards prepared and analysed under identical conditions. Clearance is calculated using non-compartmental analysis in Watson 7.4, Thermo Fisher Scientific, Inc.

Data set [4] concerns the target recombinant 5-HT2C receptor (human) (Homo sapiens (Human), UniProt P28335). The experiment in a line: 5-HT2C competition binding assay ([125I]-DOI, SPA).
Procedure: [^125I]-(±)DOI binding experiments are carried out in SPA 96-well format. Membranes used in this assay are prepared from AV-12 cells stably expressing recombinant 5-HT2C receptor (human). The incubation is initiated by the addition of a mixture of WGA PVT SPA beads (0.5 mg/well, Perkin Elmer (MA, USA), RPNQ0001) and 2.5 μg membranes to assay buffer (50 mM Tris-HCl, 10 mM MgCl2, 0.5 mM EDTA, 10 μM pargyline, 0.1% ascorbic acid, pH7.4) containing 0.2 nM [[^125I]-(±)DOI and varying concentrations of the test compound (10 point concentration response curves). Non-specific binding is determined in the presence of 20 μM 1-(1-Naphthyl) piperazine. Samples are incubated for 4 hr. at room temperature (22° C.) and then read in a Microbeta Trilux.
Curves are evaluated using a 4-parameter logistic nonlinear equation to obtain the concentration of competitor causing 50% inhibition of radioligand binding (IC50). Equilibrium dissociation constants (Ki) are calculated according to the equation Ki=IC50/(1+L/Kd), where L equals the concentration of radioligand used in the experiment and Kd equals the equilibrium dissociation constant of the radioligand for the receptor, determined from standard saturation analysis or homologous competition experiments. […]

Sequence of Dopamine D3 (P35462 whole entry): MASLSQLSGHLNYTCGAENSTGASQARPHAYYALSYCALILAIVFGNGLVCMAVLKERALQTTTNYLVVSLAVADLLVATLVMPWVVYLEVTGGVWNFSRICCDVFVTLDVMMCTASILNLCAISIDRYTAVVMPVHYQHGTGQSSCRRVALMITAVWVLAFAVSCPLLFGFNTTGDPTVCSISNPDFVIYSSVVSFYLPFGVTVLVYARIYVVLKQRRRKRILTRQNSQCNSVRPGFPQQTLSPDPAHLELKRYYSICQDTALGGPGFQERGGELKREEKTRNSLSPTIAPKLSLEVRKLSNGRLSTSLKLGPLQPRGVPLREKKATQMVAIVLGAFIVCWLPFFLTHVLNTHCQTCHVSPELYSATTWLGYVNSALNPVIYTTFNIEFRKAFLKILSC
Sequence of recombinant 5-HT2C receptor (human) (P28335 whole entry, looked up): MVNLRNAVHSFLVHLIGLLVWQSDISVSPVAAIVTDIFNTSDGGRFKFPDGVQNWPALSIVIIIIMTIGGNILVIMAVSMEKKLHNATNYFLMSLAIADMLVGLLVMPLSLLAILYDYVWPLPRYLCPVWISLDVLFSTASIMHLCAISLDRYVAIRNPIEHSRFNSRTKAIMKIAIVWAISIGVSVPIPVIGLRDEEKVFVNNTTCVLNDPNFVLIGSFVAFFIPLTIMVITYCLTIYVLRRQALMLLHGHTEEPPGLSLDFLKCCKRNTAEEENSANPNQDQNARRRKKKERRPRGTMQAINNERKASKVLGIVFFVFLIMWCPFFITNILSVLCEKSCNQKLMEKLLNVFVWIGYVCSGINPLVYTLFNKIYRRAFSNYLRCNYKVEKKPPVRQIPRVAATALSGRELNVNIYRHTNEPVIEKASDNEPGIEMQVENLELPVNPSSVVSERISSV
Sequence of human recombinant H1 receptor (P35367 whole entry): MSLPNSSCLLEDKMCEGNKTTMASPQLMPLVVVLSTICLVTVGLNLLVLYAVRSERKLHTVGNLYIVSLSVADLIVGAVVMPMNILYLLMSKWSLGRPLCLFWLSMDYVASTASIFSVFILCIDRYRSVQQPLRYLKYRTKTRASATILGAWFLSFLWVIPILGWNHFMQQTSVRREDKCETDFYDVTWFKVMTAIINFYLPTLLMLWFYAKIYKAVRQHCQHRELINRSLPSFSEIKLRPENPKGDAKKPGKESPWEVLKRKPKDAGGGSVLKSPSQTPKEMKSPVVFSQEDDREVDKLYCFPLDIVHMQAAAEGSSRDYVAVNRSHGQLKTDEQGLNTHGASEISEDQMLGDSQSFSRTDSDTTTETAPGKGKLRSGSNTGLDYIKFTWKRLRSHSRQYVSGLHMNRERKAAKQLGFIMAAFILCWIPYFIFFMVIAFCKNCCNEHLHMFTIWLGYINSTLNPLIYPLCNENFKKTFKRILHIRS

`Cc1ccc2c(c1)Oc1sc(Cl)cc1C(N1CCN(CC(C)(C)C(=O)O)CC1)=N2` [Example 1, 3-[4-(2-Chloro-8-methyl-thieno[2,3-b][1,5]benzoxazepin-4-yl)piperazin-1-yl]-2,2-dimethyl-propanoic acid]: the Ki on Dopamine D3 was greater than 5510 nM; in data set [1], 3.37 nM; in data set [2] it was 20.6 nM; at Dopamine D2, 2780 nM; in data set [4] it was 137 nM. Besides, the clearance in data set [3] was determined as 14.1 mL/min/kg.

For orientation: Ki means the dissociation constant of the complex between target and ligand, obtained from inhibition or displacement. Broadly, the clearance is the volume of plasma or blood freed of the substance per unit of time.

(Values after patent US9481688B2, “(Thieno[2,3-b][1,5]benzoxazepin-4-yl)piperazin-1-yl compounds as dual activity H1 inverse agonists/5-HT2A antagonists” (Eli Lilly and Company, priority 2011, dated 2016).)
